Test results as given in PubChem BioAssay (NCI).
Where “and” joins values, the source holds several entries; their conditions need not be identical. Equal entries are not always repeated.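 1) Cells in 96-well plates. 2) Compound, 48 h, 5 concentrations. 3) Linear interpolation between surrounding doses. 4) Unreached endpoint = highest concentration. GI50 marks 50% less growth. Definition used: TGI = concentration required for complete inhibition of growth.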

What was measured:
Experiment in all cases: NCI anticancer screen, dose series, 48 h
COLO 205 colon = system: COLO 205 colon
HCT-116 colon = system: HCT-116 colon
HL-60(TB) leukemia = system: HL-60(TB) leukemia
IGROV1 ovarian = system: IGROV1 ovarian
MCF7 breast = system: MCF7 breast
OVCAR-3 ovarian = system: OVCAR-3 ovarian
SF-268 CNS = system: SF-268 CNS
SF-539 CNS = system: SF-539 CNS
RPMI-8226 leukemia = system: RPMI-8226 leukemia
RXF 393 renal = system: RXF 393 renal

Structure (SMILES)	GI50 (COLO 205 colon)	TGI (COLO 205 colon)	GI50 (HCT-116 colon)	TGI (HCT-116 colon)	GI50 (HL-60(TB) leukemia)	TGI (HL-60(TB) leukemia)	GI50 (IGROV1 ovarian)	TGI (IGROV1 ovarian)	GI50 (MCF7 breast) [µM]	TGI (MCF7 breast) [µM]	GI50 (OVCAR-3 ovarian)	TGI (OVCAR-3 ovarian)	GI50 (SF-268 CNS)	TGI (SF-268 CNS)	GI50 (SF-539 CNS)	TGI (SF-539 CNS)	TGI (RPMI-8226 leukemia) [µM]	TGI (RXF 393 renal)	GI50 (RPMI-8226 leukemia)	GI50 (RXF 393 renal) [µM]
Cn1c2c(c3ccc([N+](=O)[O-])cc3c1=O)C(=O)c1ccccc1-2	> 100 µM	> 100 µM	> 100 µM	> 100 µM	> 100 µM	> 100 µM	> 100 µM	> 100 µM	> 100	> 100	52.6 µM	> 100 µM	> 100 µM	> 100 µM	> 100 µM	> 100 µM	–	–	–	–
Cc1cccc(C)c1NC(=O)C1C(=O)N(c2c(C)cccc2C)C(=O)/C1=N\N (stereo unspecified)	–	> 100 µM	–	> 100 µM	–	> 100 µM	–	> 100 µM	–	–	–	> 100 µM	–	> 100 µM	–	> 100 µM	> 100	> 100 µM	–	–
CC(=O)C1C(c2ccc(N(C)C)cc2)c2cc3c(cc2OC1(C)O)OCO3 (stereo unspecified)	–	> 100 µM	–	> 100 µM	–	58.2 µM	–	> 100 µM	–	–	–	> 100 µM	–	–	–	–	83.2	> 100 µM	–	–
Oc1ccc2ccccc2c1N=Nc1ccsc1	–	> 100 µM	–	> 100 µM	–	> 100 µM	–	> 100 µM	–	–	–	> 100 µM	–	> 100 µM	–	> 100 µM	> 100	> 100 µM	–	–
CC12CCC3(OCCO3)C(OC(=O)c3ccccc3)=C1CCC21OCCO1 (stereo unspecified)	–	> 100 µM	–	> 100 µM	–	> 100 µM	–	> 100 µM	–	–	–	> 100 µM	–	> 100 µM	–	> 100 µM	> 100	> 100 µM	–	–
Oc1ccc(C(c2ccc(O)cc2)c2ccc(O)cc2)cc1	–	20.8 µM	–	35 µM	–	41.5 µM	–	35.2 µM	–	> 100	–	–	–	> 100 µM	–	46 µM	56.8	39.5 µM	–	–
Cc1ccc(NC(=O)CC2Sc3ccccc3NC2=O)c(C)c1 (stereo unspecified)	–	38.7 µM	–	22 µM	–	8.35 µM	–	> 100 µM	–	–	–	28.6 µM	–	60.7 µM	–	29.6 µM	43.9	31 µM	–	–
C/C(CC(=O)Nc1ccc(C)c(C)c1)=N\NC(N)=O	–	> 100 µM	–	> 100 µM	–	> 100 µM	–	> 100 µM	–	–	–	> 100 µM	–	> 100 µM	–	> 100 µM	> 100	> 100 µM	–	–
O=[P+](O)c1ccsc1	–	> 100 µM	–	> 100 µM	–	> 100 µM	–	> 100 µM	–	–	–	–	–	> 100 µM	–	> 100 µM	> 100	> 100 µM	–	–
CCOC(=O)c1cc2c(cc1Cl)SC(N(c1ccc(OC)cc1)S(=O)(=O)c1ccc(Cl)cc1)=NS2(=O)=O	18.4 µM	48.7 µM	35.8 µM	> 100 µM	36.6 µM	> 100 µM	49.6 µM	> 100 µM	25.6	68.2	22.1 µM	54.4 µM	23.5 µM	67.6 µM	15.1 µM	31.2 µM	> 100	–	31.3 µM	–
O=c1c(Br)cc2nc3ccccc3sc-2c1Br	–	> 91 µM	–	> 100 µM	–	38.9 µM	–	> 100 µM	–	–	–	32.5 µM	–	> 100 µM	–	> 100 µM	> 100	> 100 µM	–	–
O=C(c1ccccc1)C1OC1c1ccc([N+](=O)[O-])cc1 (stereo unspecified)	12.9 µM	30.4 µM	3.17 µM	12.6 µM	–	–	3.01 µM	11.6 µM	3.16	> 100	3.84 µM	17.8 µM	8.73 µM	> 100 µM	10.2 µM	76.8 µM	> 100	44.8 µM	8.29 µM	6.38
Clc1ccc(-c2c3c(nn2-c2ccccn2)CCc2ccccc2-3)cc1Cl	> 100 µM	> 100 µM	76.1 µM	> 100 µM	–	–	> 100 µM	> 100 µM	> 100	> 100	> 100 µM	> 100 µM	> 100 µM	> 100 µM	> 100 µM	> 100 µM	> 100	> 100 µM	31.4 µM	94.6
C[n+]1c2cc(N)ccc2cc2ccc(N)cc21	441 nM [middle of 4 runs]	–	622 nM [middle of 4 runs]	5.55 µM and 11.1 µM and 5.51 µM	2.83 µM [middle of 4 runs]	9.76 µM [middle of 4 runs]	1.46 µM [middle of 4 runs]	–	–	–	1.58 µM [middle of 4 runs]	7.45 µM [middle of 4 runs]	572 nM [middle of 4 runs]	3.47 µM [middle of 4 runs]	1.33 µM [middle of 4 runs]	3.69 µM [middle of 4 runs]	–	3.59 µM [middle of 4 runs]	1.89 µM [middle of 4 runs]	–
O=C(O)CCC(N=Cc1nc(-c2ccccc2)oc1O)C(=O)O (stereo unspecified)	–	> 100 µM	–	> 100 µM	–	–	–	> 100 µM	–	–	–	> 100 µM	–	> 100 µM	–	> 100 µM	> 100	> 100 µM	–	–
CCOC(=O)N1CCC(=O)C(CNC23CC4CC(CC(C4)C2)C3)C1 (stereo unspecified)	–	> 100 µM	–	–	–	> 100 µM	–	–	–	–	–	–	–	> 100 µM	–	> 100 µM	–	33.2 µM	–	–
COC(=O)c1cc(O)c2cc3c(cc2c1-c1cc(OC)c(OC)c(OC)c1)OCO3	2.77 µM	> 100 µM	0.604 µM	> 100 µM	–	–	0.91 µM	> 100 µM	0.459	> 100	0.325 µM	1.15 µM	2.94 µM	> 100 µM	3.34 µM	> 100 µM	–	> 100 µM	–	2.95
CC(C)([NH-])CO.CC(C)([NH-])CO.[Cl][Cd][Cl]	26.1 µM	55.8 µM	18.8 µM	33.8 µM	26.9 µM	55.8 µM	19 µM	36.7 µM	–	–	20.2 µM	38 µM	18.4 µM	35.3 µM	18.7 µM	33.2 µM	43.8	–	14.5 µM	–
CCC/C(=N\NC(=S)N1CC2CCC(CC2)C1)c1ccccn1	0.0138 µM	0.0997 µM and 0.281 µM	–	0.86 µM	–	–	0.372 µM	1.4 µM and 2.21 µM	–	1.44	0.0246 µM	0.872 µM and 0.622 µM	0.332 µM	8.33 µM and 2.6 µM	1.16 µM	1.55 µM and 5.36 µM	–	1.34 µM and 0.518 µM	–	0.0356
